Experiment in all cases: MTT assay for 7-day toxicity assay
Type in all cases: cell-based
In general terms: Tetrazolium assays rely on reduction of a dye to a coloured formazan, in cell work by metabolically active cells.

The subject of assay [1] is Glioma U373VR (MGMT low) (TMZ resistant).
In assay [2] the test system is Colon HT29 (MMR proficient). The method in brief: (§1)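 Cells seeded at 400 cells/well, attached overnight, then exposed to compound at 0.5–1000 μM final for 7 days at 37 °C, 5% CO2. Viability read by MTT, with a day-0 plate fixed at drug addition as reference.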
For assay [3], the system named is Melanoma SKMEL-28 (MMR proficient). The method in brief:
as §1

Assay [4] concerns Breast MCF-7 (MMR proficient). The method in brief: as §1
Setting [5] is: 168 h, Glioma U373VR (MGMT low, TMZ resistant), 7-day MTT, single determinations, read-out: GI50.
The mark [6] stands for this setting: Homo sapiens, HT-29, 168 h, Colon HT29 (MMR proficient), 7-day MTT, single determinations, read-out: GI50.
Where [7] appears, read: Homo sapiens, SK-MEL-28, 168 h, Melanoma SKMEL-28 (MMR proficient), 7-day MTT, single determinations, read-out: GI50.
Where [8] appears, read: Glioma U373VR (MGMT low, TMZ resistant), 7-day MTT, single determinations, read-out: GI50.
Where [9] appears, read: Melanoma SKMEL-28 (MMR proficient), 7-day MTT, single determinations, read-out: GI50.
The mark [10] stands for this setting: Homo sapiens, MCF7, Breast MCF-7 (MMR proficient), read-out: GI50.
The mark [11] stands for this setting: Colon HT29 (MMR proficient), read-out: GI50.
Setting [12] is: Homo sapiens, HT-29, Colon HT29 (MMR proficient), read-out: GI50.
Setting [13] is: Homo sapiens, SK-MEL-28, Melanoma SKMEL-28 (MMR proficient), read-out: GI50.
[14] abbreviates: Melanoma SKMEL-28 (MMR proficient), read-out: GI50.
Setting [15] is: Glioma U373VR (MGMT low) (TMZ resistant), read-out: GI50.

Several values for one entry are separate records, joined by “and”; a condition that tells them apart may be missing. Equal values may be shown once. Read-outs that look alike come from different tables or passages of the source.

Our source for the GI50 values is US8450479B2, “3-substituted-4-oxo-3,4-dihydro-imidazo[5,1-d][1,2,3,5-tetrazine-8-carboxylic acid amides and their use” (Pharminox Limited, priority 2007, dated 2013).

The GI50 is the concentration giving 50% growth inhibition.

Consider `C[C@H](c1ccccc1)n1nnc2c(C(N)=O)ncn2c1=O` [BB-001, (R)-3-(-1-Phenylethyl)-8-carbamoylimidazotetrazin-4-one], for which the GI50 in assay [1] (setting [5]) is 63.7 µM.
Consider `C#CCn1nnc2c(C(N)=O)ncn2c1=O` [EE-001, 3-Propargyl-8-carbamoylimidazotetrazin-4-one], for which the GI50 was 21.1 µM in assay [2] (setting [6]), 40.3 µM in assay [1] (setting [5]) and 48.5 µM in assay [3] (setting [7]).
`CCOC(=O)Cn1nnc2c(C(N)=O)ncn2c1=O` [PX-016]: the 50% growth inhibitory concentration (GI50) in assay [1] (setting [5]) was 57.5 µM; in assay [1] (setting [8]), 71.1 µM; in assay [3] (setting [7]) it was 92.8 µM; in assay [3] (setting [9]) it was 91.3 µM.
For `COCn1nnc2c(C(N)=O)ncn2c1=O` [PX-020], the GI50 was found to be 33.4 µM in assay [4] (setting [10]); 49.8 µM in assay [2] (setting [11]); 59.4 µM in assay [2] (setting [12]); 56.1 µM in assay [3] (setting [13]); 55.1 µM in assay [3] (setting [14]).
Taken in the same sequence, the figures for `C[Si](C)(C)CCOCn1nnc2c(C(N)=O)ncn2c1=O` [PX-021] were 30.3 µM, 55.8 µM, 58.5 µM, 47.1 µM and 56.8 µM.
As for `NC(=O)c1ncn2c(=O)n(CCl)nnc12` [PX-030], in assay [1] (setting [15]), the GI50 is 28.9 µM and 34.5 µM.
On to `Cn1nnc2c(C(N)=O)ncn2c1=O` [TMZ, 3-Methyl-4-oxo-3,4-dihydro-imidazo[5,1-d][1,2,3,5]tetrazine-8-carboxylic acid amide, reference compound], for which the GI50 in assay [4] (Breast MCF-7 (MMR proficient), 7-day MTT, single determinations) is 424 µM; in assay [4] (Homo sapiens, MCF7, 168 h, Breast MCF-7 (MMR proficient), 7-day MTT, single determinations), 342 µM; in assay [4] (Homo sapiens, MCF7, read-out: TMZ GI50 Average, Breast MCF-7 (MMR proficient), average of Table 1) it was 383 µM; in assay [4] (Homo sapiens, MCF7, Breast MCF-7 (MMR proficient)), 383 µM; in assay [2] (Colon HT29 (MMR proficient), 7-day MTT, single determinations, read-out: GI50), 578 µM; in assay [2] (setting [6]), 702 µM. The GI50 in assay [2] (Homo sapiens, HT-29, Colon HT29 (MMR proficient), average of Table 1, read-out: TMZ GI50 Average) was 640 µM; in assay [2] (setting [12]), 640 µM; in assay [1] (setting [5]) it was 316 µM; in assay [1] (setting [15]) it was 289 µM; in assay [1] (setting [8]) it was 293 µM and 234 µM and 328 µM and 299 µM and 258 µM and 326 µM and 257 µM; in assay [1] (Glioma U373VR (MGMT low, TMZ resistant), average of Table 1, read-out: TMZ GI50 Average) it was 289 µM. Besides, the GI50 came to 419 µM in assay [3] (setting [7]); 431 µM in assay [3] (Homo sapiens, SK-MEL-28, Melanoma SKMEL-28 (MMR proficient), average of Table 1, read-out: TMZ GI50 Average); 431 µM in assay [3] (setting [13]); 443 µM in assay [3] (setting [9]).
